Experimental data: US10434079B2, “Compositions and methods for the treatment of fatty acid metabolism disorders” (The Children's Hospital of Philadelphia, priority 2013, dated 2019)
“Also recorded” adds a separate entry of the source.

Columns and labels:
[1] = test system: ob/ob mice; assay: Liver histology and liver/serum triglyceride concentrations in ob/ob mice; assay type: in vivo, mouse; details: GSNO-injected vs PBS-injected ob/ob mice
Text: Formalin-fixed liver sections were stained with Trichrome Stain Kit (Sigma) according to the manufacturer's instructions. Triglycerides were extracted from liver according to the Folch method (Folch et al. (1957) J. Biol. Chem., 226:497-509). Serum and liver triglyceride concentrations were quantified with a triglyceride quantification kit following the manufacturer's instructions (Abcam). Leptin-deficient mice develop liver steatosis spontaneously under normal chow diet starting at 4 to 5 weeks of life that is characterized by a diminished rate of palmitate oxidation and accumulation of fat droplets in the form of triglycerides within the hepatocytes (Brix et al. (2002) Mol. Genet. Metab., 75:219-226; de Oliveira et al. (2008) J. Am. Coll. Nutr., 27:299-305). […] This significant reduction in the rate of palmitoyl-CoA oxidation indicated a deficiency in mitochondrial β-oxidation of fatty acids. […] GSNO was used to deliver nitric oxide equivalents because of the extensive use of this pharmacological agent in cellular models to modify proteins by S-nitrosylation […] cellular permeability (Hara et al. (2005) Nat. Cell Biol., 7:665-674; Chung et al. (2004) Science 304:1328-1331). […] Moreover, the restoration of palmitoyl-CoA oxidation in GSNO-injected ob/ob mice was associated with a significant reduction of the concentration of liver triglycerides. […]

[2] = target: T1, VLCAD (Mus musculus, UniProt P50544); assay: Quantification of S-nitrosylated VLCAD by organomercury capture in liver of treated mice; assay type: in vivo; parameters: Liver homogenate (final concentration of 0.03 μg/μl) or cell lysate; from tissue; host or cells: mouse liver (C57BL/6J wild-type, ob/ob, eNOS-/-); details: ob/ob mouse liver, from 25% S-nitrosylated VLCAD
T1 sequence (P50544 42-656): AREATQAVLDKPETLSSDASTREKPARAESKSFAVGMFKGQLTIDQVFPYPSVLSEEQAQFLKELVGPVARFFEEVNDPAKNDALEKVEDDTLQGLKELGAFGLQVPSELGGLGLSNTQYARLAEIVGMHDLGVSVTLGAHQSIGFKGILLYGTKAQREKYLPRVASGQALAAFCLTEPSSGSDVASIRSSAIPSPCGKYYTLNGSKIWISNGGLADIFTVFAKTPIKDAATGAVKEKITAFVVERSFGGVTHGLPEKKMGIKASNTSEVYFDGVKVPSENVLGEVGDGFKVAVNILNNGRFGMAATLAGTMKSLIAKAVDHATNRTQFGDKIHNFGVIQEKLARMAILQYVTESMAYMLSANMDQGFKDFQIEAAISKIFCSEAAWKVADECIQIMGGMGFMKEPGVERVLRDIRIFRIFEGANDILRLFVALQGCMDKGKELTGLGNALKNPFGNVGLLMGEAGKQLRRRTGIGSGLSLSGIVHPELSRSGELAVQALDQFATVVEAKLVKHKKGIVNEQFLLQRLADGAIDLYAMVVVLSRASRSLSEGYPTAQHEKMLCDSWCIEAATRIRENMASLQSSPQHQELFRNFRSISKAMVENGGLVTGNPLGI
Protocol: A detailed experimental procedure for the preparation and activation of columns, homogenate preparation for reaction with organic mercury resin, has been described (Doulias et al. (2010) Proc. Natl. Acad. Sci., 107:16958-16963). Three biological replicates from each organ were analyzed. […] The false identification rate was <6% for brain and <3% for all other organs. For washes, stringent conditions were selected due to the differences in lipid content among the six organs. Columns were initially washed with 50 bed volumes of 50 mM tris-HCl (pH 7.4) containing 300 mM NaCl and 0.5% SDS, followed by 50 bed volumes of the same buffer containing 0.05% SDS. Columns were washed with 50 bed volumes of 50 mM tris-HCl containing 300 mM NaCl (pH 7.4), 1% Triton X-100, and 1 M urea, followed by 50 bed volumes of the same buffer containing 0.1% Triton X-100 and 0.1 M urea. Finally, columns were washed with 200 bed volumes of water before proteins were eluted with 10 ml of 50 mM β-mercaptoethanol in water. Samples were concentrated and analyzed by gel-LC (liquid chromatography)-MS/MS analysis. For on-column digestion after the final wash with water, the columns were washed with 10 bed volumes of 0.1 M ammonium bicarbonate. Bound proteins were subjected to digestion by the addition of Trypsin Gold (1 μg/ml) (Promega) in one bed volume of 0.1 M […] in the dark for 16 hours at room temperature. […]

## N[C@@H](CCC(=O)N[C@@H](CSN=O)C(=O)NCC(=O)O)C(=O)O [GSNO, S-nitrosoglutathione]
[1]
  fat deposits in liver slices (trichrome histology): diminished fatty acid deposition; also recorded: fewer fat deposits
[2]
  increase of catalytic efficiency (kcat/KM) of S-nitrosylated VLCAD vs unmodified protein: 29 fold
